The results in this text go back to patent US20060223891A1, “Use of alverine, alone or in combination with a tricyclic antidepressant or an antidepressant which is a specific inhibitor of serotonin reuptake for treatment of depression” (CEREP, priority 2003, published 2006).

What all share (assay type): in vivo
For series [1], the system named is Swiss mice CD1. The series is described as follows: forced swimming test, Alverine administered intraperitoneally (Example 1). The following applies: for immobility time, individual mice / immobility time, Average: 30 minutes prior to the test; for immobility time, Average: N = 10; for % of variation of immobility time: vs average of excipient group; for Dunnett test: vs excipient group. Details: key to Dunnett test: * indicates a significant difference for p < 0.05 (Dunnett test); ns indicates an insignificant result. Here is the method:
Antidepressive Activity Test on Alverine administered intraperitoneally on a batch of mice. To establish the advantages according to the present invention a study was carried out on a batch of 50 mice. They were divided into 5 groups of 10 mice each. These are Swiss mice CD1 (CD-1®(ICR) IGS (Charles River France) weighing between 25 and 35 g. The substance to be tested is Alverine citrate (Sigma, in the form of dry powder, with a salt/base ratio of 1.68) comparatively to imipramine chlorhydrate (Sigma, in the form of dry powder, with a salt/base ratio of 1.13). The doses are expressed in terms of free active substances. The substances are prepared extemporaneously in the excipient. The treatments are administered 30 minutes prior to the test in a coded and random order intraperitoneally with a volume of 10 ml/kg. Thirty minutes following administration the five groups of mice are subjected to the forced swimming test, in a vertical Plexiglas cylinder (height 24 cm, diameter 9 cm) containing water (height 6 cm, temperature 18-22° C.). The total duration of immobility is measured over the last four minutes of the test, six minutes in total. A mouse is deemed immobile when it ceases struggling and floats in the water without movements superfluous to those allowing it to keep its head above water. A drop in immobility time is the reflection of an antidepressant effect. The results are expressed in total duration of immobility in seconds and as a percentage of variation of the total duration of immobility calculated from the average value of the sample group. The statistical significance between the treated groups and the sample group is determined by a Dunnett test using the residual variation according to analysis of the variance (P<0.05). The data are analysed using <<SigmaStat>> software. The results obtained are presented in the form of the following table, and in the form of a histogram, in FIG. 1.

Series [2] relates to Swiss mice CD1. The series is described as follows: forced swimming test, Alverine administered orally (Example 2). Details: key to Dunnett test: * indicates a significant difference for p < 0.05 (Dunnett test); ns indicates an insignificant result. The following applies: for immobility time, individual mice / immobility time, Average: 60 minutes prior to the test; for immobility time, Average: N = 10; for % of variation of immobility time: vs average of excipient group; for Dunnett test: vs excipient group. How it is done:
Antidepressive Activity Test on Alverine administered orally on a batch of mice.
To establish the advantages according to the present invention a study, was carried out on a batch of 50 mice. They were divided into 5 groups of 10 mice each. These are Swiss mice CD1 (CD-1® (ICR) IGS (Charles River France) weighing between 25 and 35 g.
The substance to be tested is Alverine citrate (Sigma, in the form of dry powder, with a salt/base ratio of 1.68) comparatively to imipramine chlorhydrate (Sigma, in the form of dry powder, with a salt/base ratio of 1.13).
The fifth group is treated with imipramine (tricyclic antidepressant) at a dose of 30 mg/kg The doses are expressed in terms of free active substances. The substances are prepared extemporaneously in the excipient. […]
One hour following administration the five groups of mice are subjected to the forced swimming test, in a vertical Plexiglas cylinder (height 24 cm, diameter 9 cm) containing water (height 6 cm, temperature 18-22° C.). The total duration of immobility is measured over the last four minutes of the test, six minutes in total. A mouse is deemed immobile when it ceases struggling and floats in the water without movements superfluous to those allowing it to keep its head above water. A drop in immobility time is the reflection of an antidepressant effect.
The results are expressed in total duration of immobility in seconds and as a percentage of variation of the total duration of immobility calculated from the average value of the sample group.
The statistical significance between the treated groups and the sample group is determined by a Dunnett test using the residual variation according to analysis of the. variance (P<0.05). The data are analysed using <<SigmaStat>> software.

Series [3] relates to Swiss mice CD1. Briefly: forced swimming test, Alverine associated with imipramine, intraperitoneally (Example 3, test no. 1). Details: key to Dunnett test: * indicates a significant difference for p < 0.05 (Dunnett test); ns indicates an insignificant result. As to conditions: for immobility time, individual mice / immobility time, Average / % of variation of immobility time / Dunnett test: intraperitoneally; for immobility time, individual mice / immobility time, Average: 30 minutes prior to the test; for immobility time, Average: n = 10; for % of variation of immobility time: vs average of excipient group; for Dunnett test: vs excipient group; for duration of immobilisation as compared to the sample group (in words): tested alone at 3 mg/kg. How it is done: (§1) The treatments are co-administered 30 minutes prior to the test in a coded and random order intraperitoneally with a volume of 10 ml/kg (5 ml/kg for each administration). Thirty minutes following administration the six groups of mice are subjected to the forced swimming test, in a vertical Plexiglas cylinder (height 24 cm, diameter 9 cm) containing water (height 6 cm, temperature 18-22° C.). The total duration of immobility is measured over the last four minutes of the test, six minutes in total. A mouse is deemed immobile when it ceases struggling and floats in the water without movements superfluous to those allowing it to keep its. head above water. A drop in immobility time is the reflection of an antidepressant effect. The results are expressed in total duration of immobility in seconds and as a percentage of variation of the total duration of immobility calculated from the average value of the sample group. The statistical significance between two treated groups is determined by using a Student test (P<0.05). The data are analysed using <<SigmaStat>> software.

Series [4] deals with Swiss mice CD1. The series is described as follows: forced swimming test, Alverine associated with fluoxetine, intraperitoneally (Example 3, test no. 2). As to conditions: for immobility time, individual mice / immobility time, Average: 30 minutes prior to the test; for immobility time, Average: n = 10; for % of variation of immobility time: vs average of excipient group; for duration of immobilisation as compared to the sample group (in words): tested alone at 3 mg/kg. Here is the method:
as §1, with “Thirty minutes following administration the six groups of mice are subjected to the forced swimming test, in a vertical Plexiglas cylinder (height 24 cm, diameter 9 cm) containing water (height 6 cm, temperature 18-22° C.).” left out

The mark [5] stands for this setting: 3 mg/kg alone, intraperitoneally.
[6] abbreviates: 10 mg/kg alone, intraperitoneally.

Values joined by “and” are separate entries in the source; they are usually repeats but may differ in a detail not shown here. Equal values may be shown once. “Also recorded” adds a separate entry of the source. Where a name gives a salt, the structure may show the parent alone.

Regarding `CCN(CCCc1ccccc1)CCCc1ccccc1` [Alverine citrate, N-ethyl-3,3′-diphenyldipropylamine], the “immobility time, individual mice” value with Swiss mice CD1 [1] (3 mg/kg intraperitoneally) was 128 s and 82 s and 151 s and 132 s and 127 s and 88 s and 85 s and 99 s and 93 s and 118 s; in the series on Swiss mice CD1 [1] (10 mg/kg intraperitoneally), 29 s and 86 s and 28 s and 30 s and 90 s and 99 s and 65 s and 129 s and 57 s and 3 s; in the series with Swiss mice CD1 [1] (30 mg/kg intraperitoneally) it was 97 sec and 3 sec and 66 sec and 36 sec and 0 sec and 15 sec and 7 sec (2×) and 16 sec and 12 sec; with Swiss mice CD1 [2] (10 mg/kg orally), 95 s and 104 s and 111 s and 126 s and 108 s and 78 s and 115 s and 106 s and 113 s and 86 s; with Swiss mice CD1 [2] (30 mg/kg orally), 80 sec and 64 sec and 70 sec and 105 sec (3×) and 41 sec and 63 sec and 113 sec and 104 sec; with Swiss mice CD1 [2] (100 mg/kg orally), 129 s and 67 s and 6 s and 105 s and 75 s and 81 s and 5 s and 37 s and 32 s and 52 s. Also, the “immobility time, individual mice” value in the series on Swiss mice CD1 [3] (3 mg/kg alone) is 108 s and 134 s and 113 s and 65 s and 85 s and 73 s and 79 s and 125 s and 95 s and 140 s; in the series on Swiss mice CD1 [3] (10 mg/kg alone), 28 s and 10 s and 1 s and 74 s and 22 s and 70 s and 69 s and 67 s and 42 s and 57 s; in the series on Swiss mice CD1 [4] (setting [5]), 119 sec and 138 sec and 117 sec (2×) and 110 sec and 73 sec and 47 sec and 124 sec and 72 sec and 32 sec; in the series on Swiss mice CD1 [4] (setting [6]), 63 sec and 75 sec (2×) and 77 sec and 46 sec and 6 sec and 113 sec and 89 sec and 104 sec and 125 sec. Besides, the “immobility time, Average” value with Swiss mice CD1 [1] (3 mg/kg intraperitoneally) turned out to be 110.3 s; with Swiss mice CD1 [1] (10 mg/kg intraperitoneally), 61.6 s; in the series with Swiss mice CD1 [1] (30 mg/kg intraperitoneally), 25.9 s; in the series with Swiss mice CD1 [2] (10 mg/kg orally), 104.2 s; with Swiss mice CD1 [2] (30 mg/kg orally), 85.0 s; with Swiss mice CD1 [2] (100 mg/kg orally) it was 58.9 s. The “immobility time, Average” value was 101.7 s in the series on Swiss mice CD1 [3] (3 mg/kg alone), 44.0 s with Swiss mice CD1 [3] (10 mg/kg alone), 94.9 s in the series with Swiss mice CD1 [4] (setting [5]) and 77.3 s in the series on Swiss mice CD1 [4] (setting [6]). Further, the “% of variation of immobility time” value in the series on Swiss mice CD1 [1] (3 mg/kg intraperitoneally) is reported as −15%; in the series on Swiss mice CD1 [1] (10 mg/kg intraperitoneally), −53%; with Swiss mice CD1 [1] (30 mg/kg intraperitoneally), −80%; in the series with Swiss mice CD1 [2] (10 mg/kg orally), −30%; in the series on Swiss mice CD1 [2] (30 mg/kg orally), −43%; in the series on Swiss mice CD1 [2] (100 mg/kg orally), −60%. Further, the “% of variation of immobility time” value was −30% with Swiss mice CD1 [3] (3 mg/kg alone), −70% in the series on Swiss mice CD1 [3] (10 mg/kg alone), −37% in the series on Swiss mice CD1 [4] (setting [5]) and −49% in the series on Swiss mice CD1 [4] (setting [6]). Moreover, the Dunnett test entry with Swiss mice CD1 [1] (3 mg/kg intraperitoneally) is “ns”; in the series on Swiss mice CD1 [1] (10 mg/kg intraperitoneally) it was “* (* indicates a significant difference for p < 0.05 (Dunnett test))”; with Swiss mice CD1 [1] (30 mg/kg intraperitoneally) it was “* (* indicates a significant difference for p < 0.05 (Dunnett test))”; with Swiss mice CD1 [2] (10 mg/kg orally), “ns”; in the series with Swiss mice CD1 [2] (30 mg/kg orally), “* (* indicates a significant difference for p < 0.05 (Dunnett test))”; in the series on Swiss mice CD1 [2] (100 mg/kg orally) it was “* (* indicates a significant difference for p < 0.05 (Dunnett test))”. Besides, the Dunnett test result is recorded as “ns” in the series on Swiss mice CD1 [3] (3 mg/kg alone); “* (* indicates a significant difference for p < 0.05 (Dunnett test))” in the series on Swiss mice CD1 [3] (10 mg/kg alone); “* (* indicates a significant difference for p < 0.05 (Dunnett test))” in the series with Swiss mice CD1 [4] (10 mg/kg alone, intraperitoneally, vs excipient group). Moreover, the “antidepressant effect (in words)” value with Swiss mice CD1 [1] (injected intraperitoneally, 3 to 30 mg/kg, mice) is “antidepressant effect proportional to the dose; also recorded: significant antidepressant effect”; with Swiss mice CD1 [2] (orally, 10 to 100 mg/kg, mice), “significant antidepressant effect; also recorded: antidepressant effect proportional to the dose”. The secondary effect observed entry in the series with Swiss mice CD1 [2] (mice treated orally, 10 to 100 mg/kg) is “no secondary effect was observed”. Moreover, the “duration of immobilisation as compared to the sample group (in words)” value in the series on Swiss mice CD1 [3] is recorded as “decrease, statistically insignificant”; in the series on Swiss mice CD1 [4], “decrease, statistically insignificant”.

As to `CN(C)CCCN1c2ccccc2CCc2ccccc21` [Imipramine, imipramine], the “duration of immobilisation as compared to the sample group (in words)” value in the series on Swiss mice CD1 [3] is “decrease, statistically insignificant”.

For the molecule `CNCCC(Oc1ccc(C(F)(F)F)cc1)c1ccccc1` (stereo not shown) [Fluoxetine, fluoxetine], the “duration of immobilisation as compared to the sample group (in words)” value with Swiss mice CD1 [4] is listed as “decrease, statistically insignificant”.
